From patent publication US20130142847A1, “S-ADENOSYLMETHIONINE FORMULATIONS WITH ENHANCED BIOAVAILABILITY” (Methylation Sciences, Inc., priority 2009, published 2013)

What was measured:
[1] = tested on: Caco-2 cell monolayers; test: Caco-2 permeability of SAMe in the presence of tight junction modulators (Examples 3a, 3c); settings: for Permeability Coefficient: SAMe permeability; for Fold Transport Increase: SAMe transport vs SAMe control; for change in SAMe permeability across the Caco-2 cell monolayer: sulfobetaine 0.15 mM as the enhancer; for effect on SAMe uptake / SAMe permeability: in the presence of the agent, result in words
Experimental: (§1) Similar to the description above, the Caco-2 cell line was obtained from ATCC and grown in DMEM (Sigma-Aldrich) supplemented with 20% FBS (Sigma-Aldrich), 100 uM non-essential amino acids (Sigma-Aldrich) and 2 mM L-glutamine (Sigma-Aldrich). The Caco-2 cells grown in tissue culture flasks were trypsinized, suspended in medium, and the suspensions were applied to wells of a collagen-coated BioCoat Cell Environment in 24-well format at 24,500 cells per well. The cells were allowed to grow and differentiate for three weeks, feeding at 2-day intervals.
(§2) For apical to basolateral permeability, a 2 mM aqueous solution of SAMe tosylate disulfate was added to the apical side and the amount of permeation was determined on the basolateral side. The apical and basolateral side buffers contained modified Transport Buffer (25 mM HEPES, 1× Hank's Balanced Salt Solution (Sigm-Aldrich)) pH 7.4. Caco-2 cells were incubated with these buffers for 2 hours, and the receiver side buffer was removed for analysis by LC/MS/MS. The receiver, donor, and dosing solution were diluted with an equal volume of 0.2 N HCl immediately after the assay in order to increase SAMe stability. Donor and dosing solution were diluted 100-fold to ensure that the concentration was within the linear range of the assay.
(§3) The permeability (Papp) of SAMe is calculated using the following formula:
(§4) Where dQ/dt is the rate of permeation, C0 is the initial concentration of test agent, and A is the area of the monolayer.
(§5) In vitro Caco-2 testing was performed as detailed above using 0.15 mM of sulfobetaine-10, sulfobetaine-12, sulfobetaine-14, sulfobetaine-16, or sulfobetaine-18 as the enhancer.

[2] = tested on: Caco-2 cell monolayers; test: 24 hour resistance recovery test (Caco-2 cell recovery post treatment); type: cell-based, human
Experimental: As part of these in vitro studies, the degree of Caco-2 cell recovery (as observed by degree of permeability and cell attachment 24 hours post treatment with each tight junction modulator) was also investigated. This 24 hour resistance recovery test is an indirect measure of epithelial cell disruption and data supporting a trend toward less in vitro disruption may be associated with less impact in vivo.

[3] = Permeability of SAMe across Caco-2 cell monolayers (Example 3); settings: human, Caco-2, pH 7.4
Experimental: (§6) In these models, pure cell lines are grown on a semi-permeable membrane. Drug formulations are placed on the apical or basolateral side of the cell monolayer and transport is determined via measurement of drug concentrations on the other side of the membrane.
(§7) The Caco-2 cell line utilized here was from the American Type Culture Collection (ATCC). Caco-2 cells are grown in Dulbecco's modified Eagle's medium (DMEM, Gibco) supplemented with 20% FBS (fetal bovine serum, Gibco), 100 uM non-essential amino acids (NEAA, Gibco) and 2 mM L-glutamine (Gibco). A Beckton Dickinson BIOCOAT® HTS Caco-2 Assay System Kit is used resulting in 6.6×10^5 cells/cm^2 seeding density (BIOCOAT is a registered trademark of Collaborative Biomedical Products, Inc., Bedford, Mass., USA). The cells used in transport studies are grown for 3 days before the experiments. The culturing conditions are 37° C. in an atmosphere of 5% CO2 and 100% humidity.
(§8) For permeability across Caco-2 cell monolayers, the transport medium used was Hank's Buffered Salt Solution (HBSS; purchased from Gibco) containing D-glucose, and HEPES pH adjusted to 7.4. A 2 mM aqueous solution of either SAMe tosylate disulfate or SAMe 1,4 butanedisulfonate was added on the apical or basolateral side according to the manufacturer's procedure for the Caco-2 kit. Samples were measured after 120 minute incubation by liquid chromatography-mass spectrometry (LC/MS). The integrity of the monolayers was monitored using Lucifer Yellow Assay. […] Propranolol is a high permeability marker and was utilized as a positive control for a readily absorbed molecule.

[4] = tested on: Caco-2 cell monolayers; test: as above; settings: for Papp_a-b Apical to Basal: apical to basolateral; for Papp_a-b Apical to Basal / Papp_b-a Basal to Apical: HBSS pH 7.4, 120 minute incubation, SAMe salt 2 mM; for Papp_b-a Basal to Apical: basolateral to apical
Experimental: as §6, §7, §8

[5] = Caco-2 permeability of SAMe in the presence of tight junction modulators (Examples 3a, 3c); settings: human, Caco-2, pH 7.4, Permeability Coefficient, permeability control compound itself, 50 uM
Experimental: as §1, §2, §3, §4, §5

[6] = Plasma SAMe metabolites after 1600 mg of a commercially available SAMe formulation; type: in vivo; settings: all time points after 1600 mg dose of commercially available SAMe; seven subjects
Experimental: This finding is in contrast to the general dogma surrounding SAMe metabolism which continually reports that low SAMe bioavailability is due to active metabolism by the liver upon administration. […] In order to test this theory, the inventors measured the level of S-adenosyl homocysteine (SAH), the primary metabolite of SAMe, at various time points after administration of a 1600 mg dose of a commercially available SAMe formulation.

[7] = tested on: cultured rat hepatocytes; settings: McMillan et al. 2005; cited from earlier work
[8] = tested on: Caco-2 cells; settings: McMillan et al. 2005; cited from earlier work
[9] = literature reports; cited from earlier work
[10] = Single dose pharmacokinetic study of enteric coated SAMe capsules in fasted male beagle dogs; type: in vivo; settings: for effect on in vivo bioavailability of SAMe / amount of SAMe in the plasma versus control: beagle dogs, capsule 200 mg SAMe ion + 200 mg enhancer vs control capsule, result in words
Experimental: Following collection, samples were centrifuged (at 4° C.) to separate the plasma fraction from the blood cells. The resulting plasma fraction was recovered and stored frozen (at −80° C.) using polypropylene tubes pending bioanalytical analysis.
This method employs stable-isotope dilution liquid chromatography-electrospray […] tandem mass spectrometry (LC-ESI-MS/MS) to determine SAMe and SAH in plasma.

[11] = plasma, fasted male beagle dogs, single oral enteric coated capsule, 200 mg SAMe ion with or without 200 mg enhancer

CCCCCCCCCCCC[N+](C)(C)CCCS(=O)(=O)[O-] [Sulfobetaine-12]
Permeability Coefficient ([1]; enhancer 0.15 mM (Table 7)): 0.257 ×10⁻⁶ cm/s | Fold Transport Increase ([1]; enhancer 0.15 mM (Table 7)): 1.4X | change in SAMe permeability across the Caco-2 cell monolayer [1]: did not improve SAMe permeability | TEER Resist. 24 hour post assay ([2]; enhancer 0.15 mM): 1923 ohms

CCCCCCCCCCCCCCCCCC[N+](C)(C)CCCS(=O)(=O)[O-] [Sulfobetaine-18]
Permeability Coefficient ([1]; enhancer 0.15 mM (Table 7)): 0.649 ×10⁻⁶ cm/s | Fold Transport Increase ([1]; enhancer 0.15 mM (Table 7)): 5.0X | change in SAMe permeability across the Caco-2 cell monolayer [1]: at least a five-fold increase | TEER Resist. 24 hour post assay ([2]; enhancer 0.15 mM): 292 ohms

CC(C)NCC(O)COc1cccc2ccccc12 (stereo not drawn) [Propranolol]
Papp A→B at 120 min [3]: 22.4 ×10⁻⁶ cm/s | Papp B→A at 120 min [3]: 18.4 ×10⁻⁶ cm/s | Papp_a-b Apical to Basal [4]: 22.4 ×10⁻⁶ cm/s | Papp_b-a Basal to Apical [4]: 18.4 ×10⁻⁶ cm/s

CCCCCCCC[N+](C)(C)CCCS(=O)(=O)[O-] [Sulfobetaine-8]
Permeability Coefficient ([1]; enhancer 0.15 mM (Table 7)): 0.218 ×10⁻⁶ cm/s | Fold Transport Increase ([1]; enhancer 0.15 mM (Table 7)): 1.2X | TEER Resist. 24 hour post assay ([2]; enhancer 0.15 mM): 1553 ohms

CCCCCCCCCC[N+](C)(C)CCCS(=O)(=O)[O-] [sulfobetaine-10]
change in SAMe permeability across the Caco-2 cell monolayer [1]: did not improve SAMe permeability

CC(=O)CC(c1ccccc1)c1c(O)c2ccccc2oc1=O (stereo not drawn) [Warfarin, reference compound]
Papp at 2 h, 50 uM ([5]; run 2): 48.8 ×10⁻⁶ cm/s | Papp at 2 h, 50 uM ([5]; run 3): 49 ×10⁻⁶ cm/s | Papp at 2 h, 50 uM ([5]; run 4): 46.6 ×10⁻⁶ cm/s

Nc1ncnc2c1ncn2[C@@H]1O[C@H](CSCC[C@H](N)C(=O)O)[C@@H](O)[C@H]1O [SAH, S-adenosyl homocysteine]
plasma concentration of SAH relative to SAMe [6]: significantly lower than the level of SAMe itself

C[S+](CC[C@H](N)C(=O)O)C[C@H]1O[C@@H](n2cnc3c(N)ncnc32)[C@H](O)[C@@H]1O (stereo partly drawn) [SAMe, S-adenosyl-L-methionine]
absorption by cultured rat hepatocytes [7]: poorly absorbed | transport through a monolayer of Caco-2 cells [8]: poorly transported | fold increase in SAMe permeability ([4]; calcium-free buffer): 13-24 fold | SAMe bioavailability when orally administered [9]: less than 5%

CNC(=C[N+](=O)[O-])NCCSCc1ccc(CN(C)C)o1 [Ranitidine, reference compound]
Papp at 2 h, 50 uM ([5]; run 2): 0.91 ×10⁻⁶ cm/s | Papp at 2 h, 50 uM ([5]; run 3): 0.91 ×10⁻⁶ cm/s | Papp at 2 h, 50 uM ([5]; run 4): 1 ×10⁻⁶ cm/s

CCCCCCCCCC(=O)[O-].[Na+] [Sodium Caprate]
effect on in vivo bioavailability of SAMe / amount of SAMe in the plasma versus control [10]: did not enhance the in vivo bioavailability of SAMe

CCCCCCCCCCCCCC[N+](C)(C)CCCS(=O)(=O)[O-] [Sulfobetaine-14]
effect on in vivo bioavailability of SAMe / amount of SAMe in the plasma versus control [10]: significant increase in the bioavailability of SAMe | SAMe AUC [10, 11]: 10226 ng·h/mL | SAMe Cmax [10, 11]: 4148 ng/mL | Permeability Coefficient ([1]; enhancer 0.15 mM (Table 7)): 0.654 ×10⁻⁶ cm/s | Fold Transport Increase ([1]; enhancer 0.15 mM (Table 7)): 5.0X | change in SAMe permeability across the Caco-2 cell monolayer [1]: at least a five-fold increase | TEER Resist. 24 hour post assay ([2]; enhancer 0.15 mM): 1892 ohms

CCCCCCCCCCCCCCCC(=O)OC(CC(=O)O)C[N+](C)(C)C.[Cl-] (stereo not drawn) [Palmitoyl Carnitine Chloride (PCC), Palmitoyl carnitine chloride]
Permeability Coefficient ([1]; test article 0.15 mM, run 2): 0.78 ×10⁻⁶ cm/s | Permeability Coefficient ([1]; test article 0.15 mM, run 4): 5 ×10⁻⁶ cm/s | Permeability Coefficient ([1]; test article 0.4 mM, run 4): 10 ×10⁻⁶ cm/s | effect on SAMe uptake / SAMe permeability [1]: marked increase in SAMe permeability

C[S+](CC[C@H](N)C(=O)[O-])C[C@H]1O[C@@H](n2cnc3c(N)ncnc32)[C@H](O)[C@@H]1O.O=S(=O)(O)CCCCS(=O)(=O)O (stereo partly drawn) [SAMe 1,4 butanedisulfonate]
Papp_a-b Apical to Basal [4]: 0.5 ×10⁻⁶ cm/s | Papp_b-a Basal to Apical [4]: 0.6 ×10⁻⁶ cm/s

CCCCCCCCCCCCCCCC[N+](C)(C)CCCS(=O)(=O)[O-] [3-(N,N-Dimethylpalmitylammonio)propanesulfonate]
effect on in vivo bioavailability of SAMe / amount of SAMe in the plasma versus control [10]: significant increase in the amount of SAMe present in the plasma | effect on SAMe uptake / SAMe permeability [1]: marked increase in SAMe permeability | change in SAMe permeability across the Caco-2 cell monolayer [1]: at least a five-fold increase | TEER Resist. 24 hour post assay ([2]; enhancer 0.6 mM): 33 ohms
